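The compound was tested at five concentrations on cells cultured in 96-well plates, with a 48-hour exposure period. At the GI50, growth is halved. The concentration for full growth arrest is given as TGI.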

This note sets out measurements from PubChem BioAssay (NCI).

The subject of the test is MDA-MB-468 breast. The experiment in a line: inhibition of tumour cell growth, NCI panel, 48 h.
Consider `CCCCCCCCCCCCCCCC1=NC(C)(C)CN1C(C)C`, for which the GI50 was 1.32 µM and the TGI was found to be 2.66 µM. The like results for `Cc1cc(C(=O)c2ccccc2)c(C)c2c1[nH]c1ccc(Cl)cc12` were, in that order, 0.0339 µM and 1.12 µM. The like results for `O=C(CCCCC(=O)N/N=C\c1ccccc1O)N/N=C\c1ccccc1O` were, in that order, 2.63 µM and above 100 µM. The compound `CN(C)CCCn1c(-c2nonc2N)nc2cnccc21` gave a TGI above 25 µM. For the compound `CCN(CC)c1ccc(/C=C/C=C2\NC(=O)NC2=O)cc1`, the GI50 was 1.82 µM and the TGI was found to be 7.26 µM. The like results for `CC#Cc1nc(Nc2cc(C)[nH]n2)c2ccccc2n1` were, in that order, 2.47 µM and 6.4 µM. The corresponding values for `Oc1ccc(N=Nc2ccccn2)c(O)c1` are 0.681 µM and 4.65 µM.

In the case of `O=C1OCC2=C1C(c1ccccc1)c1cc3c(cc1N2CCO)OCCO3` (stereo not drawn), the GI50 is 0.138 µM and the TGI came out at 0.959 µM. In the case of `N#CC1C=Cc2c(ccc3ccccc23)N1C(=O)c1ccccc1` (stereo not drawn), the GI50 was 0.0432 µM and the TGI was determined as 0.218 µM. On to `C[C@@H](Nc1nc(Nc2ccc(F)c(Cl)c2)nc2ccccc12)C1CC1`, for which the GI50 is 1.35 µM and the TGI was determined as 3.74 µM.

In the case of `O=c1oc2c(C(F)(F)F)cccc2cc1-c1csc(Nc2ccc(OCCF)cc2)n1`, the GI50 is 0.0401 µM and the TGI turned out to be 12.4 µM. The like results for `CCN(c1cc(C#CCN2CCOCC2)cc(C(=O)NCc2c(C)cc(C)[nH]c2=O)c1C)C1CCC(N(C)CCOC)CC1` (stereo not drawn) were, in that order, above 100 µM and above 100 µM.
